Experiment [1] addresses T1, human amylin receptor (hAMYR3) (Homo sapiens, UniProt O60896+P30988).
T1 construct: host or cells: BHK (Baby Hamster Kidney), Hollex-1 cell line further transfected with RAMP3
As to the kind of experiment: Human amylin receptor (hAMYR3) in vitro potency assay, CRE-luciferase reporter in BHK cells. The experiment is classed as cell-based. Particulars: BHK hAMYR3/CRE-Luc cells, 3 hours incubation, assay buffer with 1% ovalbumin. The essentials:
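Luminescence from a CRE-driven luciferase reporter reflects cAMP-mediated receptor activation. Peptides were serially diluted (7 concentrations, 7-fold steps, typically starting near 10 nM) in buffer with 1% ovalbumin and applied for 3 h at 37 °C to BHK cells co-expressing calcitonin receptor (a) and RAMP3.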

For experiment [2], the target named is T2, human calcitonin receptor (hCTR) (Homo sapiens, UniProt P30988).
T2 construct: host or cells: BHK (Baby Hamster Kidney), Hollex-1 cell line
T2 sequence (P30988 25-474): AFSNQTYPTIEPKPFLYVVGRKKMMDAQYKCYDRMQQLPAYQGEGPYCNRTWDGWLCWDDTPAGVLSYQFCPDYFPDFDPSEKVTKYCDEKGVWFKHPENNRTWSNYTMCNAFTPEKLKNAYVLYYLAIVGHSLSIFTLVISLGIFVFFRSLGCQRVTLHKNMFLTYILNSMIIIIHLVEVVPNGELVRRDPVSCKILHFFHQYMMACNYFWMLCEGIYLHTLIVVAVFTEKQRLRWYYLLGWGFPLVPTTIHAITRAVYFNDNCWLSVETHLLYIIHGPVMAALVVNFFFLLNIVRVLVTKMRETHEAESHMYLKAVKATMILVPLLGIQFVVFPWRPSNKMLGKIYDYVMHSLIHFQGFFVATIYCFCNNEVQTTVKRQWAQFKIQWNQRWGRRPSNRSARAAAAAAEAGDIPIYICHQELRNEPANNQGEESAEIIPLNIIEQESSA
As to the kind of experiment: Human calcitonin receptor (hCTR) in vitro potency assay, CRE-luciferase reporter in BHK cells. The experiment is classed as cell-based. Particulars: BHK hCTR/CRE-Luc cells, 3 hours incubation, assay buffer with 1% ovalbumin; read-out: hCalcR potency, EC50. The essentials:
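Luciferase signal from a CRE reporter served as the cAMP read-out after 3 h, 37 °C exposure to compound. Cells were stably transfected BHK expressing hCTR, and the buffer was phenol-red-free DMEM with 10 mM HEPES and 1% ovalbumin. Compounds were tested as 7-point, 7-fold dilutions, often from about 10 nM.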

Starred links: 1 amine or outer side, 2 acyl side, 3 side chain; linkers in the order of their positions; H or OH if unused. Residues, ends and D or L forms follow the SMILES beside them. *: point of attachment. C18 diacid = O=C(O)CCCCCCCCCCCCCCCCC(=O)*; γGlu = O=C(O)[C@H](CCC(=O)[*:2])N[*:1]

T1 sequence (O60896 24-148, one chain of several): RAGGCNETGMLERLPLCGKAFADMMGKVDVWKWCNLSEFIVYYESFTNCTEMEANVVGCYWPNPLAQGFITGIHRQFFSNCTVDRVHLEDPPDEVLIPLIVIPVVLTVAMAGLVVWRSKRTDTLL

Take `CC[C@H](C)[C@H](NC(=O)[C@H](C)NC(=O)CNC(=O)[C@H](Cc1ccccc1)NC(=O)[C@@H]1CCCN1C(=O)[C@H](CCC(=O)O)NC(=O)[C@H](CO)NC(=O)[C@H](CO)NC(=O)[C@H](Cc1c[nH]cn1)NC(=O)[C@H](Cc1c[nH]cn1)NC(=O)[C@H](CC(C)C)NC(=O)[C@H](Cc1ccccc1)NC(=O)[C@H](CCC(=O)O)NC(=O)[C@H](C)NC(=O)[C@H](CC(C)C)NC(=O)[C@H](CCCNC(=N)N)NC(=O)[C@H](CCC(N)=O)NC(=O)[C@@H](NC(=O)[C@H](CCC(N)=O)NC(=O)[C@H](C)NC(=O)[C@@H](NC(=O)[C@H](CO)NC(=O)[C@H](CC(C)C)NC(=O)[C@H](Cc1c[nH]cn1)NC(=O)[C@H](CO)NC(=O)[C@H](C)NC(=O)CC[C@H](NC(=O)CCCCCCCCCCCCCCCCC(=O)O)C(=O)O)[C@@H](C)O)[C@@H](C)O)C(=O)N1CCC[C@H]1C(=O)N[C@@H](CO)C(=O)N[C@@H](CO)C(=O)N[C@H](C(=O)N[C@@H](CCC(=O)O)C(=O)N[C@H](C(=O)NCC(=O)N1CCC[C@H]1C(=O)N[C@@H](CCC(=O)O)C(=O)N[C@H](C(=O)N1CCC[C@H]1C(N)=O)[C@@H](C)O)C(C)C)[C@@H](C)O` [Compound 27, N^1-[(4S)-4-carboxy-4-(17-carboxyheptadecanoylamino)butanoyl]-[Ala1,Ser2,His3,Leu4,Ser5,Ala7,Gln8,Glu14,His17,Glu21,Pro22,Pro27,Glu31,Pro34,Glu35,Pro37]-human amylin] ({C18 diacid-γGlu}-ASHLSTAQTQRLAEFLHHSSEPFGAIPSSTEVGPETP-NH2): the EC50 is 2.68 pM in experiment [1] and 1.78 pM in experiment [2].
The corresponding values for `CC[C@H](C)[C@H](NC(=O)[C@H](C)NC(=O)CNC(=O)[C@H](Cc1ccccc1)NC(=O)[C@@H]1CCCN1C(=O)[C@H](CC(=O)O)NC(=O)[C@H](CO)NC(=O)[C@H](CO)NC(=O)[C@H](Cc1c[nH]cn1)NC(=O)[C@H](Cc1c[nH]cn1)NC(=O)[C@H](CC(C)C)NC(=O)[C@H](Cc1ccccc1)NC(=O)[C@H](CCC(=O)O)NC(=O)[C@H](C)NC(=O)[C@H](CC(C)C)NC(=O)[C@H](CCCNC(=N)N)NC(=O)[C@H](C)NC(=O)[C@@H](NC(=O)[C@H](CCC(N)=O)NC(=O)[C@H](C)NC(=O)[C@@H](NC(=O)[C@H](CO)NC(=O)[C@H](CC(C)C)NC(=O)[C@H](Cc1c[nH]cn1)NC(=O)[C@H](CO)NC(=O)[C@H](C)NC(=O)CC[C@H](NC(=O)CCCCCCCCCCCCCCCCC(=O)O)C(=O)O)[C@@H](C)O)[C@@H](C)O)C(=O)N1CCC[C@H]1C(=O)N[C@@H](CO)C(=O)N[C@@H](CO)C(=O)N[C@H](C(=O)N[C@@H](CC(=O)O)C(=O)N[C@H](C(=O)NCC(=O)N1CCC[C@H]1C(=O)N[C@@H](CC(=O)O)C(=O)N[C@H](C(=O)N[C@@H](Cc1ccc(O)cc1)C(N)=O)[C@@H](C)O)C(C)C)[C@@H](C)O` [Compound 37, N^1-[(4S)-4-carboxy-4-(17-carboxyheptadecanoylamino)butanoyl]-[Ala1,Ser2,His3,Leu4,Ser5,Ala7,Gln8,Ala10,Glu14,His17,Asp21,Pro22,Pro27,Asp31,Pro34,Asp35]-human amylin] ({C18 diacid-γGlu}-ASHLSTAQTARLAEFLHHSSDPFGAIPSSTDVGPDTY-NH2) are 1.68 pM and 2.16 pM.

(Values after patent publication US12116388B2, “Amylin receptor agonists” (Novo Nordisk A/S, priority 2022, dated 2024).)
